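All cell lines were grown in 96-well plates and treated with compound for 48 hours. Here, GI50 denotes the concentration required for 50% inhibition of growth.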 Activity calls are given as the source filed them. Cut-off read from the data, not from the text of the source: active = GI50 up to about 1.1 µM and inactive = higher.
How the values were obtained:
Assay in all cases: growth of human tumour cells (NCI), 48 h
[1] = tested on: A549
[2] = tested on: KM12
[3] = tested on: DMS-114
[4] = tested on: SNB-75
[5] = tested on: CAKI-1
[6] = tested on: SF-539
[7] = tested on: UO-31
[8] = tested on: SNB-78
[9] = tested on: HCT-15
[10] = tested on: ACHN
[11] = tested on: A498
[12] = tested on: CCRF-CEM
[13] = tested on: NCI-H522
[14] = tested on: RPMI-8226
[15] = tested on: SW-620
[16] = tested on: K562
[17] = tested on: IGROV-1
[18] = tested on: OVCAR-5
[19] = tested on: MOLT-4
[20] = tested on: LXFL 529
[21] = tested on: NCI-H460
[22] = tested on: SF-295
[23] = tested on: OVCAR-3
[24] = tested on: DMS-273
[25] = tested on: M19-MEL
[26] = tested on: OVCAR-8
[27] = tested on: SR
[28] = tested on: HOP-18
[29] = tested on: DLD-1
[30] = tested on: SK-OV-3
[31] = tested on: SF-268
[32] = tested on: SNB-19
[33] = tested on: RXF 393
[34] = tested on: TK-10
[35] = tested on: KM-20L2
[36] = tested on: HCC 2998
[37] = tested on: M14
[38] = tested on: HOP-92
[39] = tested on: HCT-116
[40] = tested on: OVCAR-4
[41] = tested on: SK-MEL-5
[42] = tested on: NCI-H226
[43] = tested on: 786-0
[44] = tested on: SK-MEL-2
[45] = tested on: UACC-62
[46] = tested on: SK-MEL-28
[47] = tested on: XF498
[48] = tested on: UACC-257
[49] = tested on: U-251
[50] = tested on: HL-60
[51] = tested on: SN12C
[52] = tested on: Malme-3M
[53] = tested on: HOP-62
[54] = tested on: NCI-H23
[55] = tested on: EKVX
[56] = tested on: COLO 205
[57] = tested on: HT-29
[58] = tested on: LOX IMVI
[59] = tested on: NCI/ADR-RES
[60] = tested on: MCF7
[61] = tested on: RXF 631

Measured: GI50

Cc1ccc(NC(=O)/C(C#N)=C/c2ccccc2)c(C)c1
> 100 µM: [9]
inactive: [1] > 100 µM | [2] > 100 µM | [3] > 100 µM | [4] > 100 µM | [5] > 100 µM | [6] > 100 µM | [7] > 100 µM | [8] > 100 µM | [10] > 100 µM | [11] > 100 µM | [12] > 100 µM | [13] > 100 µM | [14] > 100 µM | [15] > 100 µM | [16] > 100 µM | [17] > 100 µM | [18] > 100 µM | [19] > 100 µM | [20] > 100 µM | [21] > 100 µM | [22] > 100 µM | [23] > 100 µM | [24] > 100 µM | [25] > 100 µM | [26] > 100 µM | [27] > 100 µM | [28] > 100 µM | [29] > 100 µM | [30] > 100 µM | [31] > 100 µM | [32] > 100 µM | [33] > 100 µM | [34] > 100 µM | [35] > 100 µM | [36] > 100 µM | [37] > 100 µM | [38] > 100 µM | [39] > 100 µM | [40] > 100 µM | [41] > 100 µM | [42] > 100 µM | [43] > 100 µM | [44] > 100 µM | [45] > 100 µM | [46] > 100 µM | [47] > 100 µM | [48] > 100 µM | [49] > 100 µM | [50] > 100 µM | [51] > 100 µM | [52] > 100 µM | [53] > 100 µM | [54] > 100 µM | [55] > 100 µM | [56] > 100 µM | [57] > 100 µM

Cc1cccc2c(=O)c([Se]c3coc4c(C)cccc4c3=O)coc12
inactive: [1] 7.71 µM | [2] 13.7 µM | [58] 20 µM | [3] 17.7 µM | [4] 16.7 µM | [5] 20.7 µM | [6] 16.3 µM | [7] 14.9 µM | [8] 16.3 µM | [10] 18.4 µM | [11] 24.6 µM | [12] 31.4 µM | [13] 31.3 µM | [14] 29.2 µM | [15] 20.4 µM | [16] 69.5 µM | [17] 13.6 µM | [18] 18.9 µM | [19] 38.6 µM | [20] 14.6 µM | [21] 5.73 µM | [22] 3.56 µM | [23] 25.2 µM | [24] 21.4 µM | [25] 16.5 µM | [26] 15.9 µM | [27] 14.8 µM | [28] 19 µM | [29] 20.8 µM | [30] 17.6 µM | [31] 19.6 µM | [32] 19.4 µM | [33] 17.8 µM | [34] 29.9 µM | [35] 21.5 µM | [36] 21.2 µM | [37] 16.4 µM | [38] 20.8 µM | [39] 5.68 µM | [40] 16.7 µM | [41] 18.2 µM | [42] 16.9 µM | [43] 17.3 µM | [44] 18.5 µM | [45] 17.8 µM | [46] 16.7 µM | [47] 19.7 µM | [48] 18.2 µM | [49] 11.2 µM | [50] 30.6 µM | [51] 18.5 µM | [52] 19.1 µM | [53] 11.9 µM | [54] 17.2 µM | [55] 17.3 µM | [56] > 10 µM | [57] 25.6 µM
19.4 µM: [9]

CCOC(=O)/C=C/c1c[nH]c(=O)[nH]c1=O
> 75 µM: [9]
inactive: [1] > 75 µM | [2] > 75 µM | [58] > 75 µM | [3] > 75 µM | [4] > 72.6 µM | [5] > 75 µM | [6] > 75 µM | [7] > 75 µM | [8] > 75 µM | [11] > 75 µM | [12] > 75 µM | [13] > 75 µM | [14] > 39.4 µM | [15] > 47.3 µM | [16] > 75 µM | [17] > 75 µM | [18] > 75 µM | [19] > 33.4 µM | [21] > 75 µM | [59] > 75 µM | [60] > 75 µM | [22] > 75 µM | [23] > 75 µM | [24] > 75 µM | [25] > 75 µM | [26] > 75 µM | [28] > 75 µM | [29] > 75 µM | [30] > 41.5 µM | [31] > 75 µM | [32] > 75 µM | [33] > 75 µM | [35] > 75 µM | [36] > 75 µM | [38] > 75 µM | [39] > 75 µM | [40] > 75 µM | [41] > 75 µM | [42] > 75 µM | [44] > 75 µM | [45] > 75 µM | [46] > 75 µM | [47] 11.9 µM | [48] > 75 µM | [49] > 75 µM | [50] > 75 µM | [51] > 75 µM | [52] > 75 µM | [53] > 49.1 µM | [54] > 75 µM | [55] > 75 µM | [56] > 75 µM | [57] > 75 µM

N#CCCc1nc2ccc(Br)cc2c(=O)n1-c1ccc(O)c([N+](=O)[O-])c1
inactive: [1] 55 µM | [2] 18.5 µM | [58] 19 µM | [4] 26.7 µM | [5] 32.9 µM | [6] 18.8 µM | [7] 25.6 µM | [8] 24.2 µM | [10] 30.3 µM | [11] 47.3 µM | [12] 19.7 µM | [13] 15.8 µM | [14] 17.3 µM | [15] 22.1 µM | [16] 23.9 µM | [17] 20.6 µM | [18] 46.1 µM | [61] 17.9 µM | [19] 19.6 µM | [20] 20 µM | [21] 27.5 µM | [22] 20.1 µM | [23] 18.7 µM | [25] 19.4 µM | [26] 26.9 µM | [29] 16.9 µM | [30] 38.5 µM | [31] 24.1 µM | [33] 18.1 µM | [34] 34.7 µM | [35] 46.3 µM | [36] 18.6 µM | [37] 21 µM | [38] 25.4 µM | [40] 20.5 µM | [41] 18.4 µM | [42] 19.9 µM | [43] 19.3 µM | [44] 18.6 µM | [45] 18.9 µM | [46] 19.3 µM | [47] 17.1 µM | [48] 30.1 µM | [49] > 10 µM | [50] 17.2 µM | [51] 19 µM | [52] 17.3 µM | [53] 36.5 µM | [54] 20.8 µM | [55] 25.5 µM | [56] 22.9 µM | [57] 27.7 µM
18.8 µM: [9]

COC(=O)C1CCC[C@H]2C(CO)=C(C)C(=O)[C@@H]12 (some centres not stated)
> 100 µM: [9]
inactive: [1] > 100 µM | [2] > 100 µM | [3] > 100 µM | [4] > 100 µM | [5] > 100 µM | [6] > 100 µM | [7] > 100 µM | [8] > 100 µM | [10] > 100 µM | [11] > 100 µM | [12] > 100 µM | [13] > 100 µM | [14] > 100 µM | [15] > 100 µM | [16] > 100 µM | [17] > 100 µM | [18] > 100 µM | [19] > 100 µM | [20] > 100 µM | [21] > 100 µM | [22] > 100 µM | [24] > 100 µM | [26] > 100 µM | [27] > 100 µM | [28] > 100 µM | [29] > 100 µM | [30] > 100 µM | [31] > 100 µM | [32] > 100 µM | [33] > 100 µM | [34] > 100 µM | [35] > 100 µM | [36] > 100 µM | [37] > 100 µM | [38] > 100 µM | [39] > 100 µM | [40] > 100 µM | [41] > 100 µM | [42] > 100 µM | [43] > 100 µM | [44] > 100 µM | [45] > 100 µM | [46] > 100 µM | [47] > 100 µM | [48] > 100 µM | [49] > 100 µM | [50] > 100 µM | [51] > 100 µM | [52] > 100 µM | [53] > 100 µM | [54] > 100 µM | [55] > 100 µM | [56] > 100 µM | [57] > 100 µM

From ChEMBL document CHEMBL1201862, “PubChem BioAssay data set” (2004)
